From PubChem BioAssay (NCI)
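In this assay, cells in 96-well plates receive the compound at five concentrations for 48 hours. Endpoints are linearly interpolated between the surrounding concentrations. GI50 marks 50% less growth. TGI: total growth inhibition.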

Experiments:
Assay in all cases: inhibition of tumour cell growth, NCI panel, 48 h
SW-620 colon = test system: SW-620 colon
SN12C renal = test system: SN12C renal
PC-3 prostate = test system: PC-3 prostate
NCI-H23 lung = test system: NCI-H23 lung
DU-145 prostate = test system: DU-145 prostate
HCT-15 colon = test system: HCT-15 colon
HOP-62 NSCLC = test system: HOP-62 NSCLC
CAKI-1 renal = test system: CAKI-1 renal
TK-10 renal = test system: TK-10 renal
MDA-MB-435 = test system: MDA-MB-435

| SMILES | GI50 (SW-620 colon) | TGI (SW-620 colon) | GI50 (SN12C renal) | TGI (SN12C renal) | GI50 (PC-3 prostate) | TGI (PC-3 prostate) | GI50 (NCI-H23 lung) | TGI (NCI-H23 lung) | GI50 (DU-145 prostate) | TGI (DU-145 prostate) | TGI (HCT-15 colon) | TGI (HOP-62 NSCLC) | TGI (CAKI-1 renal) | TGI (TK-10 renal) | GI50 (MDA-MB-435) | TGI (MDA-MB-435) | GI50 (HCT-15 colon) | GI50 (CAKI-1 renal) | GI50 (TK-10 renal) | GI50 (HOP-62 NSCLC) |
| --- | --- | --- | --- | --- | --- | --- | --- | --- | --- | --- | --- | --- | --- | --- | --- | --- | --- | --- | --- | --- |
| O=C(Nc1ccc(Cl)c(Cl)c1)Nc1c(Oc2ccc(Cl)c(Cl)c2)ccc(Cl)c1S(=O)(=O)O | 1.27 µM | > 100 µM | 4.48 µM | > 100 µM | 3.59 µM | > 100 µM | 2.52 µM | > 100 µM | 3.22 µM | > 100 µM | – | – | – | – | – | – | – | – | – | – |
| O=c1c(Br)cc2nc3ccccc3sc-2c1Br | – | > 100 µM | – | > 100 µM | – | – | – | > 100 µM | – | – | > 100 µM | > 100 µM | > 100 µM | > 100 µM | – | – | – | – | – | – |
| COc1cc(C(=O)N2CCN(c3ncnc4ccccc34)CC2)c(N)cc1OCc1ccccc1 | 11.4 µM | 23.5 µM | 18.3 µM | 32.3 µM | 15.4 µM | 43.2 µM | 15.6 µM | 30.4 µM | 7.21 µM | 19.9 µM | 31 µM | – | 24.1 µM | 51.1 µM | 13.1 µM | 27.4 µM | 16.7 µM | 5.73 µM | 20 µM | – |
| CCN(CC)CC(O)CNc1c2ccc([N+](=O)[O-])cc2nc2cc(OC)c(OC)cc12 (stereo not drawn) | 0.289 µM | 2.37 µM | 0.335 µM | 2.79 µM | 0.329 µM | 1.05 µM | 0.22 µM | 0.705 µM | 0.304 µM | 1.3 µM | 3.6 µM | – | 16.6 µM | 9.79 µM | 0.374 µM | 1.42 µM | 0.854 µM | 4.5 µM | 1.94 µM | – |
| COc1ccc2c(=O)cc(C(Cl)(Cl)Cl)oc2c1 | 0.237 µM | 14.5 µM | 0.519 µM | 11.9 µM | 0.39 µM | 18.9 µM | 0.409 µM | 19.3 µM | 0.309 µM | 0.971 µM | 14.2 µM | 27.6 µM | 14.6 µM | 40.4 µM | – | – | 0.24 µM | 0.376 µM | 8.36 µM | 1.04 µM |
| Cc1ccc(NC(=O)CC2Sc3ccccc3NC2=O)c(C)c1 (stereo not drawn) | – | 56 µM | – | > 100 µM | – | – | – | 33.7 µM | – | – | – | 34 µM | 63.3 µM | 50.9 µM | – | – | – | – | – | – |
| COC(=O)C(C(=O)OC)C1CCCC(=O)C1 (stereo not drawn) | – | > 100 µM | – | > 100 µM | – | – | – | > 100 µM | – | – | > 100 µM | > 100 µM | – | > 100 µM | – | – | – | – | – | – |
| Cn1cnc([N+](=O)[O-])c1Sc1nccn1-c1cccc2ccccc12 | – | > 100 µM | – | > 100 µM | – | – | – | 50.6 µM | – | – | – | > 100 µM | > 100 µM | > 100 µM | – | – | – | – | – | – |
| CC(=O)OC[C@@H](COC(=O)/C=C/c1ccc(O)cc1)OC1OC(CO)C(O)C(O)C1O (stereo partly drawn) | – | > 100 µM | – | > 100 µM | – | – | – | > 100 µM | – | > 100 µM | > 100 µM | > 100 µM | > 100 µM | > 100 µM | – | – | – | – | – | – |
| C/C(CC(=O)Nc1ccc(C)c(C)c1)=N\NC(N)=O | – | > 100 µM | – | – | – | – | – | > 100 µM | – | – | – | > 100 µM | – | > 100 µM | – | – | – | – | – | – |
| Cc1cccc(C(C)(C)C)c1NC(=O)CC1C(=O)Nc2ccccc2S1(=O)=O (stereo not drawn) | – | 22.1 µM | – | 25.7 µM | – | – | – | 18.9 µM | – | – | 16.3 µM | – | 31.3 µM | 42 µM | – | – | – | – | – | – |
| CCOC(=O)N1CCC(=O)C(CNC23CC4CC(CC(C4)C2)C3)C1 (stereo not drawn) | – | 39.5 µM | – | > 100 µM | – | – | – | > 100 µM | – | – | – | > 100 µM | – | > 100 µM | – | – | – | – | – | – |
| CN1C(=O)C2C3C=C4c5ccccc5N(c5ccccc5)C4(C2C1=O)[C@H]1C(=O)N(C)C(=O)[C@@H]31 (stereo partly drawn) | – | > 100 µM | – | > 100 µM | – | – | – | > 100 µM | – | – | – | > 100 µM | – | > 100 µM | – | – | – | – | – | – |
| CCC[CH2][Sn]1([CH2]CCC)[O]CC(CN(C)Cc2ccccc2)[O]1 (stereo not drawn) | 2.77 µM | 11.1 µM | 10.1 µM | 21.9 µM | – | – | 3.18 µM | 14.5 µM | – | – | 20.3 µM | 27.7 µM | 7.13 µM | 11.4 µM | – | – | 8.29 µM | 1.47 µM | 3.63 µM | 14.1 µM |
| Cc1cc(N2CCOCC2)nc(N[C@@H]2CCC[C@H](Nc3ccnc4cc(Cl)ccc34)C2)n1 | 2.07 µM | 5.36 µM | 2.48 µM | 8.68 µM | 2.38 µM | 6.01 µM | 5.97 µM | 21.2 µM | 3.82 µM | 14.7 µM | 3.54 µM | 4.36 µM | – | 4.09 µM | 1.86 µM | 3.39 µM | 1.4 µM | – | 2.15 µM | 1.73 µM |
| Cc1cccc(C)c1NC(=O)C1C(=O)N(c2c(C)cccc2C)C(=O)/C1=N\N (stereo not drawn) | – | > 100 µM | – | > 100 µM | – | – | – | > 100 µM | – | – | > 100 µM | > 100 µM | > 100 µM | > 100 µM | – | – | – | – | – | – |
| CO/N=C(\C)c1ccc(Nc2cc(-c3ccccc3)nc3ccc(OC)cc23)cc1 | 3.4 µM | 11.9 µM | 1.7 µM | 4.11 µM | 4.17 µM | 16.2 µM | 2.52 µM | 10.3 µM | 5.36 µM | 21.3 µM | 11 µM | – | 5.16 µM | 6.85 µM | 1.76 µM | 3.46 µM | 3.17 µM | 2.05 µM | 2.52 µM | – |
| C/C1=C/C(=O)O[C@@H]2C[C@@H](CC[C@H](C)/C=C\C=C\CC1)O[C@@](O)([C@@H]1CSC(=O)N1)C2 | – | – | – | > 10 µM | – | > 10 µM | – | > 10 µM | – | > 10 µM | > 10 µM | 0.724 µM | 0.619 µM | 1.01 µM | – | > 2.24 µM | – | – | – | – |
| COC(=O)c1cccn1C(=O)n1cccc1 | – | > 100 µM | – | > 100 µM | – | – | – | > 100 µM | – | – | – | > 100 µM | > 100 µM | > 100 µM | – | – | – | – | – | – |
| CC(C)(C)c1cc(-n2c(-c3ccc(Cl)cc3)nc3cc(C(=O)Nc4ccc(Cl)cc4)ccc32)n[nH]1 | – | – | 5.82 µM | > 100 µM | 3.29 µM | > 100 µM | 4.86 µM | > 100 µM | 8.5 µM | > 100 µM | – | 36.9 µM | – | > 100 µM | – | – | – | – | 3.66 µM | 14.1 µM |
| CC(=O)C1C(c2ccc(N(C)C)cc2)c2cc3c(cc2OC1(C)O)OCO3 (stereo not drawn) | – | > 100 µM | – | > 100 µM | – | – | – | > 100 µM | – | – | > 100 µM | > 100 µM | 87.8 µM | > 100 µM | – | – | – | – | – | – |
